Data reported in article PMC4949396, “The effects of apremilast on the QTc interval in healthy male volunteers: a formal, thorough QT study” (International Journal of Clinical Pharmacology and …, 2016).
Like-named read-outs stand apart in the source and are kept apart here. Marks after values point to notes of the source that are not given here. Values belong to the compound of their own block, whether it stands above or below them.

Legend:
[1] = molecular target: T1, hERG potassium channel (Homo sapiens, UniProt Q12809); assay: voltage-clamp study of hERG current in HEK293 cells expressing hERG; format: cell-based
T1 construct: expressed in transfected cells; host or cells: HEK-293 cells stably expressing hERG
T1 sequence (Q12809 whole entry): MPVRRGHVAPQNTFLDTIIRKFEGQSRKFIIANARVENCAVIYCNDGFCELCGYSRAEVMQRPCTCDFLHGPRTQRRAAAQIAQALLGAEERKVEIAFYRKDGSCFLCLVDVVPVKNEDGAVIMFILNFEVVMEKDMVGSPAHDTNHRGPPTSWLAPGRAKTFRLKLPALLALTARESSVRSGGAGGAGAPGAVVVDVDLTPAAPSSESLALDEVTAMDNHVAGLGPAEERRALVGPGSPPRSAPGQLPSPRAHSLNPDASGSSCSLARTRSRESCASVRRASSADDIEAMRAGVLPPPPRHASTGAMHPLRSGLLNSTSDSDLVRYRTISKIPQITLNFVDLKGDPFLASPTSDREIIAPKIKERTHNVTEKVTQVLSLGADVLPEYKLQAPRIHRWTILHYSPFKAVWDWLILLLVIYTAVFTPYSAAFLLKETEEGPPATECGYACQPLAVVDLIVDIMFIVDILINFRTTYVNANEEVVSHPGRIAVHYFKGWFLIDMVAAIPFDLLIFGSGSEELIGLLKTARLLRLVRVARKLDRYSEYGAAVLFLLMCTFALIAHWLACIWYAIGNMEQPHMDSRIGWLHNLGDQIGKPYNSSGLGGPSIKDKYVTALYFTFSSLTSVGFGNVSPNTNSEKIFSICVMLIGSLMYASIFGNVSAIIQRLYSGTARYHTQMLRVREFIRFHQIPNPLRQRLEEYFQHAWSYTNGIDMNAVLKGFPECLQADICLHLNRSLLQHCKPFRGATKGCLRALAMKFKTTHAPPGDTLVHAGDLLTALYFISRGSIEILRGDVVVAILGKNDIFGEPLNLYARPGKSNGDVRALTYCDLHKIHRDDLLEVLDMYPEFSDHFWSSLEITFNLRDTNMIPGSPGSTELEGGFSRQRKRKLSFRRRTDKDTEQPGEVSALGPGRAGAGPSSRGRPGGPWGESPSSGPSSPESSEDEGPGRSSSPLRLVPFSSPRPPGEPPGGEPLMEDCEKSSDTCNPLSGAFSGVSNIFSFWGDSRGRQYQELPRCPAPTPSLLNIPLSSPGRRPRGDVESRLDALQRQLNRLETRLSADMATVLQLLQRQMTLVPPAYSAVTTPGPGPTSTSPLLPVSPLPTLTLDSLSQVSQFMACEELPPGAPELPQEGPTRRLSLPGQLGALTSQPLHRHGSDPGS
Description: This IC50 value is > 2 orders of magnitude greater than the maximum plasma concentration (Cmax) values observed in healthy male subjects and in PsA or rheumatoid patients at the highest doses studied. Prolongation of the QT interval is associated with a rare but dangerous ventricular arrhythmia, torsade de pointes, and drug-induced prolongation of the QT interval represents a significant risk. The current study was undertaken to provide definitive evaluation of the clinical potential for prolongation of the QT interval with apremilast.
Furthermore, a structure-activity relationship study has shown that the structure of a PDE4 inhibitor can be optimized for high-potency PDE4 inhibition and minimize or eliminate its affinity for hERG channel by targeted modification of pharmacophores. The structure of apremilast was optimized for PDE4 inhibition and minimal affinity for the hERG channel.

[2] = tested on: healthy male subjects; assay: exploratory PK/PD relationship between ΔΔQTcI and plasma concentration (linear mixed-effect model); format: in vivo, human; settings: for relationship between changes in QT/QTc interval and plasma concentration: in vivo; for estimated slope (SE) of ΔΔQTcI vs plasma concentration: linear regression, random effect model, pooled doses
Protocol: The PK/PD analysis was performed using a linear mixed-effect model to explore the relationship between the ΔΔQTcI and plasma concentrations for apremilast, M12, M14, and M16, and to estimate the population slope (β) and standard error of slope (SEβ). The expected maximum ΔΔQTcI effect for each dose and each analyte was estimated using the slope and average Cmax with one-sided upper limit 95% CIs.

[3] = set-up: method as in PMID 21859393; settings: cited from earlier work
[4] = tested on: healthy male subjects; assay: safety assessments (adverse events, vital signs, laboratory tests); format: in vivo, human; settings: up to doses of 50 mg twice daily
Protocol: Safety assessments were performed at clinic check-in, periodically throughout each treatment period, and at the end-of-study visit and included the measurement of vital signs, recording of standard 12-lead ECGs, collection of samples for clinical laboratory tests, and physical examinations. Adverse events (AEs) and concomitant medication use were assessed and recorded throughout the study.

[5] = set-up: method as in PMID 26097790; settings: 30 mg b.i.d., cited from earlier work
[6] = tested on: healthy male subjects; assay: thorough QT/QTc study, 24-hour digital Holter ECG (QTc, HR, PR); settings: for decrease of time-matched, baseline-adjusted LS mean PR interval (ΔΔPR): 2 hours postdose; for effect on the QT/QTc interval: overall conclusion of the study
Protocol: This was a single-center, randomized, crossover study with 4 treatments, 4 periods, and 4 sequences conducted in healthy male subjects. Apremilast (Otezla; Celgene Corporation, Summit, NJ, USA) was administered in a double-blind manner with matching placebo, and moxifloxacin was administered in an open-label manner. The core central electrocardiogram (ECG) laboratory staff, including those reading the ECGs, was blinded to treatment, sequence time, and subject identifiers.
The 4 treatments evaluated in this study included an apremilast-matched placebo administered twice daily (b.i.d.) for 9 doses (~ 5 days), a clinically relevant dose of apremilast 30 mg administered b.i.d. for 9 doses, a supratherapeutic dose of apremilast 50 mg administered b.i.d. for 9 doses, and placebo administered on days 1 – 4 followed by a single dose of moxifloxacin 400 mg on day 5. Subjects fasted for at least 8 hours before the morning dose or before the start of Holter monitoring on days –1 and 5.
ECGs were analyzed for ventricular HR, PR, QRS, RR, and QT intervals and morphological changes. Mean of the triplicate ECGs at each nominal time point was used for all reporting and analysis; however, individual values were used to calculate the correction coefficient (γ) for QTcI. The QTc corrections were individual correction by QTcI = QT/RR^γ, Fridericia’s by QTcF = QT/RR^0.33, and Bazett’s by QTcB = QT/RR^0.5. Individual correction coefficient, γ, was estimated using linear regression of log QT on log RR for each subject using all baseline ECG assessments collected before day 1 dosing in period 1 within a subject. Change from baseline was calculated as the average of the three predose assessments on day 1 of the corresponding treatment period subtracted from the value (i.e., QTc) on day 5 at a given time t. Double-delta (ΔΔ) values for various cardiac parameters (i.e., ΔΔQTcI, ΔΔQTcB, etc.) were determined as the change from baseline value relative to placebo at the same scheduled time.
At each time point, difference in least-squares (LS) means was estimated between the LS means of each apremilast dose and placebo (with placebo as reference). Two-sided 90% confidence intervals (CIs) were produced for the comparisons.
The effect of QTcI for moxifloxacin was assessed at 1, 1.5, 2, 3, and 4 hours postdose to assess assay sensitivity. At each time point, the ΔΔ value was estimated between the LS means of moxifloxacin and placebo. […] If at least one of the CIs completely exceeded 5 ms, then the assay was declared sensitive.
For secondary analyses, a Student’s t-test was performed comparing each dose of apremilast vs. placebo and between moxifloxacin and placebo at each time point. Two-sided 90% CIs were produced for the comparisons. The effect of apremilast on QTcF, QTcB, HR, PR, and QT was assessed using the same linear mixed model from the primary analysis. […] The model included treatment group, period, sequence, and baseline ECG interval as a covariate, and subject nested within sequence as a random effect.
If a subject experienced > 1 episode of a particular outlier event, the subject was counted only once for that event.

[7] = plasma pharmacokinetics on day 5 after multiple oral doses of apremilast in healthy male subjects; format: in vivo, human; settings: for AUC / AUC0–τ, geometric mean (geometric CV%): τ 12 hours; for AUC: read-out: AUC0–τ, geometric mean (geometric CV%); for Tmax: read-out: tmax, median (minimum–maximum)
Protocol: PK parameters were derived using noncompartmental methods with WinNonlin® Professional version 5.1.2 (Pharsight Corporation, Mountain View, CA, USA). […] For determination of PK parameters (terminal elimination rate constant (Kel), time to maximum plasma concentration (tmax), and terminal half-life (t1/2)), plasma concentrations for apremilast and its major metabolites below the limit of quantitation (BLQ) were treated as missing except for the calculation of area under the plasma concentration-time curve (AUC). To calculate AUC, BLQ or missing concentrations in the beginning and end of profile were replaced with zero, and BLQ or missing concentrations in the middle of the profile were interpolated.
Blood samples were collected in lithium heparin tubes and plasma was separated. The plasma samples, fortified with Sorensen’s buffer (25 mM citrate, pH 1.5) containing amastatin 20 µM (1 : 1/v : v), were analyzed by two validated liquid chromatography/tandem mass spectrometry methods, one for determination of apremilast and the other for its metabolites M12 (CC-16166), M14 (CC-16793), and M16 (CC-16557).

[8] = patients with rheumatoid arthritis or PsA, n = 15
[9] = both apremilast doses, all time points
[10] = both apremilast doses, all values
[11] = apremilast 50 mg b.i.d., day 5, plasma
[12] = male, human, oral, apremilast 30 mg b.i.d., day 5, plasma
[13] = male, human, oral, apremilast 50 mg b.i.d., day 5, plasma
[14] = apremilast 30 mg b.i.d., day 5, plasma

estimated slope (SE) of ΔΔQTcI vs plasma concentration [2]: –0.0016 (0.0027)
increase of AUC with increasing dose ([7]; 50 mg b.i.d. vs 30 mg b.i.d.): ~ 1.5 times
increase of Cmax with increasing dose ([7]; 50 mg b.i.d. vs 30 mg b.i.d.): ~ 1.4 times
t1/2, geometric mean (geometric CV%) [7, 11]: 7.28 (29.1) h
AUC [7, 12]: 2260 ng·h/mL
half-life ([7]; male, human, oral, apremilast 30 mg b.i.d., day 5, plasma, read-out: t1/2, geometric mean (geometric CV%) (converted)): 6.41 h
Tmax [7, 12]: 2 h
AUC [7, 13]: 3450 ng·h/mL
Tmax [7, 13]: 2 h
Cmax ([7]; male, human, plasma, oral, 30 mg, apremilast 30 mg b.i.d., day 5, plasma, read-out: Cmax, geometric mean (geometric CV%)): 352 ng/mL
Cmax ([7]; male, human, plasma, oral, 50 mg, apremilast 50 mg b.i.d., day 5, plasma, read-out: Cmax, geometric mean (geometric CV%)): 507 ng/mL
Cmax ([7]; male, human, plasma, oral, 50 mg, healthy subjects, 50 mg b.i.d., read-out: maximum Cmax): 1060 ng/mL
half-life ([7]; male, human, plasma, oral, across both doses (30 and 50 mg b.i.d.), read-out: mean t1/2): 6 to 7 h
AUC(0-t) ([7]; male, human, plasma, oral, healthy subjects, 50 mg b.i.d., read-out: maximum AUC0–12): 9350 ng·h/mL
Compound: CCOc1cc([C@@H](CS(C)(=O)=O)N2C(=O)c3cccc(NC(C)=O)c3C2=O)ccc1OC [apremilast, (S)-N-[2-[1-(3-ethoxy-4-methoxyphenyl)-2-methanesulfonylethyl]-1,3-dioxo-2,3-dihydro-1H-isoindol-4-yl] acetamide]
Hill coefficient of hERG current inhibition ([1]; HEK293 cells expressing hERG): 0.9
IC50 ([1]; HEK293 cells expressing hERG, read-out: hERG current inhibition, estimated half maximal inhibitory concentration (IC50)): 184 µM
IC50 ([1]; HEK293 cells expressing hERG, same value in mass units, read-out: hERG current inhibition, estimated IC50 (converted)): 184 µM
affinity for the hERG channel ([1]; voltage-clamp, HEK-293 cells stably expressing hERG): low affinity
hERG IC50 relative to Cmax at the highest doses studied ([1]; vs Cmax in healthy male subjects and PsA or rheumatoid patients): > 2 orders of magnitude
relationship between changes in QT/QTc interval and plasma concentration [2]: No trend or relationship
half-life ([3]; humans): 6 to 9 h
safety and tolerability [4]: safe and well tolerated
maximum AUC0–12 ([5]; PsA and psoriasis patients): 8,280 ng×h/mL
maximum Cmax ([5]; PsA and psoriasis patients): 981 ng/mL
geometric mean Cmax [5, 8]: 554 ng/mL
mean AUC0–12 [5, 8]: 3,670 ng×h/mL
LS mean ΔΔQTcI ([6]; apremilast 30 mg b.i.d., day 5, all time points): –4.2 to 0.7 ms
increase of time-matched, baseline-adjusted LS mean HR (ΔΔHR) ([6]; apremilast 30 mg dose, 2 hours after administration): 3.1 bpm
decrease of time-matched, baseline-adjusted LS mean PR interval (ΔΔPR) ([6]; apremilast 30 mg dose): 2.8 ms
decrease of time-matched, baseline-adjusted LS mean PR interval (ΔΔPR) ([6]; apremilast 50 mg dose): 3.5 ms
increase of time-matched, baseline-adjusted LS mean HR (ΔΔHR) ([6]; apremilast 50 mg dose, 3 hours after administration): 4.4 bpm
LS mean ΔΔQTcI ([6]; both apremilast doses (30 and 50 mg b.i.d.), all time points): < 1 ms
upper limit of two-sided 90% CI of ΔΔQTcB [6, 9]: below 10 ms
upper limit of two-sided 90% CI of ΔΔQTcF [6, 9]: below 10 ms
LS mean ΔΔQTcB [6, 10]: < 5 ms
LS mean ΔΔQTcF [6, 10]: < 1 ms
subjects with maximum on-treatment QT/QTc interval > 480 ms or change from baseline > 60 ms ([6]; categorical analysis, while receiving apremilast): No subject
effect on the QT/QTc interval [6]: did not prolong the QT interval

Compound: COc1c(N2C[C@@H]3CCCN[C@@H]3C2)c(F)cc2c(=O)c(C(=O)O)cn(C3CC3)c12 [moxifloxacin]
effect on the QT/QTc interval [6]: significantly increased the QT/QTc interval

estimated slope (SE) of ΔΔQTcI vs plasma concentration [2]: –0.0006 (0.0028)
t1/2, geometric mean (geometric CV%) [7, 14]: 12.18 (25.9)^c h
tmax, median (minimum–maximum) [7, 14]: 3.0 (1.0 – 12.0) h
AUC0–τ, geometric mean (geometric CV%) [7, 14]: 3,930 (23.9) ng×h/mL
Cmax, geometric mean (geometric CV%) [7, 11]: 659.1 (21.0) ng/mL
t1/2, geometric mean (geometric CV%) [7, 11]: 12.79 (29.0)^e h
tmax, median (minimum–maximum) [7, 11]: 3.0 (0.5 – 6.0) h
AUC0–τ, geometric mean (geometric CV%) [7, 11]: 5,968 (20.0) ng×h/mL
AUC of metabolite relative to apremilast ([7]; plasma, day 5): ~ 1.7 fold
Cmax of metabolite relative to apremilast ([7]; plasma, day 5): ~ 1.25 fold
Compound: O-des-methyl-[S]-CC-10004-glucuronide [M12]
relationship between changes in QT/QTc interval and plasma concentration [2]: No trend or relationship
pharmacological activity ([3]; glucuronide metabolites): not pharmacologically active
half-life ([3]; humans): ~ 16 hours
metabolite to total radioactivity ratio ([3]; humans): ~ 39%
